The record followed here is ChEMBL document CHEMBL1201862, “PubChem BioAssay data set” (2004).

Among the test systems are CAKI-1; DMS-114; HCT-15; HOP-62; HOP-92; IGROV-1; K562; KM12; OVCAR-3; RXF 393; SF-268; SF-295; SF-539; SK-MEL-5; SNB-75; UACC-257; UACC-62.
Assay in all cases: DTP human tumour cell line panel, 48 h

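In this assay, cells in 96-well plates receive the compound at five concentrations for 48 hours. Endpoints are linearly interpolated between the surrounding concentrations. Abbreviation: GI50, concentration required for 50% inhibition of growth.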 Active and inactive are the calls of the source. Cut-off read from the data, not from the text of the source: active = GI50 up to about 1.1 µM and inactive = higher.

A word on the GI50: it is the concentration that inhibits growth by half. With `CC1OC(OCC2OC(Oc3c(-c4ccc(O)cc4)oc4cc(O)cc(O)c4c3=O)C(OC3OC(C)C(O)C(O)C3O)C(O)C2O)C(O)C(O)C1O` (configuration not stated), the GI50 with CAKI-1 is > 100 µM (inactive); with DMS-114, > 53.7 µM (inactive); with HCT-15, greater than 42.3 µM; in the test with HOP-62, > 100 µM (inactive); in the test on HOP-92, > 100 µM (inactive); in the test with IGROV-1, > 100 µM (inactive). Moreover, the GI50 in the test with K562 is > 31.6 µM (inactive); with KM12, > 100 µM (inactive); in the test on OVCAR-3, > 100 µM (inactive); with RXF 393, > 100 µM (inactive); in the test on SF-268 it was > 100 µM (inactive); with SF-295 it was > 100 µM (inactive). Moreover, the GI50 with SF-539, with SK-MEL-5, in the test on SNB-75, in the test with UACC-257 and in the test with UACC-62 was > 100 µM (inactive) throughout.
